Assay results as given in US9918915B2, “Personal care compositions providing enhanced cooling sensation” (THE PROCTER & GAMBLE COMPANY, priority 2007, dated 2018).

Test system: panelists
Assay: Sensory evaluation of cooling sensation after brushing with coolant dentifrice followed by aqueous rinse with or without calcium
Format: in vivo, human
Set-up: key to Cooling Sensation Score: 0 = no cooling, 60 = intense cooling; 7.5 = definite cooling
Details: for Cooling Sensation Score: 0-60 scale
Protocol: Sensory evaluation studies of coolant activity were conducted using a methodology patterned after the techniques described in M. C. Meilgaard, et al., Sensory Evaluation Techniques, 4th Ed. (2007). In one study, a panel of 11 trained sensory experts evaluated cooling sensation experienced after brushing with a dentifrice containing coolant(s) followed by rinsing with an aqueous rinse containing a calcium ion source. Panelists brushed teeth with 1.5 grams of a test dentifrice (containing coolant) or control (no coolant) and then expectorated. After brush expectoration, panelists evaluated cooling intensity, assigning a number between 0 (no cooling) to 60 (intense cooling). Panelists then rinsed mouth with 15 ml. of an aqueous rinse (with or without calcium) and expectorated. After rinse expectoration, panelists evaluated cooling intensity according to the same 0 to 60 scale. Evaluations were conducted at 5, 15, 30, 45, 60 minute, etc. time points. At each evaluation, panelists were instructed to breathe in through pursed lips and evaluate overall cooling sensation. In this test, a numerical score of 7.5 indicates meaningful or definite cooling.

CC(C)[C@@H]1CC[C@@H](C)CC12OCC(CO)O2 (some centres unmarked) [MGA, menthone glycerol acetal]
Cooling Sensation Score (1500 ppm coolant in paste, rinse Ca+2 0 ppm, 0 min.): 16.5 | Cooling Sensation Score (1500 ppm coolant in paste, rinse Ca+2 0 ppm, 5 min.): 13.6 | Cooling Sensation Score (1500 ppm coolant in paste, rinse Ca+2 0 ppm, 15 min.): 4.4 | Cooling Sensation Score (1500 ppm coolant in paste, rinse Ca+2 0 ppm, 30 min.): 0 | Cooling Sensation Score (1500 ppm coolant in paste, rinse Ca+2 0 ppm, 45 min.): 0 | Cooling Sensation Score (1500 ppm coolant in paste, rinse Ca+2 0 ppm, 60 min.): 0 | Cooling Sensation Score (1500 ppm coolant in paste, rinse Ca+2 723 ppm, 0 min.): 20.7 | Cooling Sensation Score (1500 ppm coolant in paste, rinse Ca+2 723 ppm, 5 min.): 18.3 | Cooling Sensation Score (1500 ppm coolant in paste, rinse Ca+2 723 ppm, 15 min.): 7.0 | Cooling Sensation Score (1500 ppm coolant in paste, rinse Ca+2 723 ppm, 30 min.): 1.4 | Cooling Sensation Score (1500 ppm coolant in paste, rinse Ca+2 723 ppm, 45 min.): 0 | Cooling Sensation Score (1500 ppm coolant in paste, rinse Ca+2 723 ppm, 60 min.): 0 | Calcium enhancing effect on cooling (1500 ppm level of coolant in dentifrice): calcium enhancing effect was also observed | Potentiating effect of calcium ions on cooling intensity and duration (at the levels of coolant and calcium used): particularly evident

CNC(=O)C(C)(C(C)C)C(C)C [WS-23, N,2,3-trimethyl-2-isopropylbutanamide]
Cooling Sensation Score (800 ppm coolant in paste, rinse Ca+2 0 ppm, 0 min.): 15.4 | Cooling Sensation Score (800 ppm coolant in paste, rinse Ca+2 0 ppm, 5 min.): 7.4 | Cooling Sensation Score (800 ppm coolant in paste, rinse Ca+2 0 ppm, 15 min.): 3.0 | Cooling Sensation Score (800 ppm coolant in paste, rinse Ca+2 0 ppm, 30 min.): 0 | Cooling Sensation Score (800 ppm coolant in paste, rinse Ca+2 0 ppm, 45 min.): 0 | Cooling Sensation Score (800 ppm coolant in paste, rinse Ca+2 0 ppm, 60 min.): 0 | Cooling Sensation Score (800 ppm coolant in paste, rinse Ca+2 723 ppm, 0 min.): 18.8 | Cooling Sensation Score (800 ppm coolant in paste, rinse Ca+2 723 ppm, 5 min.): 4.9 | Cooling Sensation Score (800 ppm coolant in paste, rinse Ca+2 723 ppm, 15 min.): 1.0 | Cooling Sensation Score (800 ppm coolant in paste, rinse Ca+2 723 ppm, 30 min.): 0 | Cooling Sensation Score (800 ppm coolant in paste, rinse Ca+2 723 ppm, 45 min.): 0 | Cooling Sensation Score (800 ppm coolant in paste, rinse Ca+2 723 ppm, 60 min.): 0
